Data: article PMC12705613 (Frontiers in Microbiology, 2025)

Columns and labels:
[1] = tested on: gut microbiota from SHRs; assay: Anaerobic incubation of drug with fecal gut microbiota from SHRs; assay type: in vitro ADME, rat; conditions: for Qualitative analysis: metabolism to other compounds: SHR gut microbiota in vitro, UHPLC-Q-TOF-MS; for Remaining content: SHR gut microbiota, 40 μM drug, anaerobic 37 °C, mGAM
Experimental: (§1) Fresh fecal samples from WKYs and SHRs were collected and immediately transferred to an anaerobic chamber (90% N₂, 5% CO₂, 5% H₂). Fecal suspensions were prepared by homogenizing 1 g of feces in 15 mL of sterile phosphate-buffered saline containing 0.1% L-cysteine. […] Bacteria-free controls contained equivalent drug volumes consistently. […] Drug remaining content and non-target metabolites screen were detected by ultra-high performance liquid chromatography coupled with triple quadrupole mass spectrometry (UHPLC-TQ-MS) and ultra-high performance liquid chromatography with quadrupole time-of-flight mass spectrometry (UHPLC-Q-TOF-MS), respectively. The sample preparation process can be found in the Supplementary material. For UHPLC-Q-TOF-MS analysis, the MS parameters and IDA criteria can be seen in Supplementary Table S1.
(§2) The sample processing procedures were tailored to align with the experimental objectives. For qualitative metabolite profiling, supernatants from the co-incubation of bacteria and drugs were collected at designated time points, filtered using a 0.22 μm membrane, lyophilized, and reconstituted in 200 μL of methanol. After vortexing and centrifuging for 10 minutes at 4°C and 12,000 rpm, the supernatant was transferred to an LC vial, and 5 μL aliquot was injected into the UHPLC-Q-TOF-MS/MS. For quantitative analysis, 100 μL aliquots were taken from the co-incubation supernatant and spiked with 1,000 μL of methanol containing 500 ng/mL of irbesartan. Following one minute of vortexing and centrifugation at 12,000 rpm for 10 minutes, the resulting supernatant was transferred to an LC vial, and a 5μL aliquot was injected into the UHPLC-TQ-MS/MS.

[2] = tested on: Enterococcus faecalis (ATCC 51299); assay type: in vitro ADME; conditions: tested concentrations; OD600
Experimental: Enterococcus faecalis (ATCC 51299, BNCC) was cultured in modified brain heart infusion (BHI) broth supplemented with L-cysteine HCl (0.5 g/L), vitamin K1 (10 mg/L), hemin (5 mg/L) and resazurin (1 mg/L). Limosilactobacillus reuteri (JCM 1112, Guangdong Academy of Sciences) was cultured in MRS medium at 37 °C in an anaerobic chamber (5%H2, 5%CO2 and 90%N2). Drug metabolism assays were performed in 96-well plates under optimal growth conditions for each strain. […] Each experiment comprised three biological replicates, including a bacteria-free control. The growth of strains was monitored by measuring OD600 (Eon Microplate Spectrophotometer, BioTek) every 2 h for the first 10 h, followed by 12 to 24 h intervals until 72 h. Supernatants were withdrawn at 6, 12, 24, 48, and 72 h. The remaining drug content and the formation of E-3179 were quantified via UHPLC-TQ-MS. The sample preparation for quantitative analysis was the same as in section 2.3.

[3] = Stability of the analytes in rat plasma at different storage conditions; assay type: in vitro ADME
Experimental: Analysis of QC samples was performed according to a standard curve, which was obtained from freshly prepared calibration standard samples. The autosampler stability was determined by placing samples in the autosampler rack at 8 ℃ for 24 h. The freeze-thaw stability was evaluated after three complete freeze-thaw cycles (-80 ℃ to 25 ℃) on consecutive days. The short-term stability was determined after samples were exposed to room temperature for 6 h. The long-term stability was assessed after storing the samples at -80 ℃ for 30 days. The analytes were considered stable if the deviation between the mean measured concentration and the nominal concentration was within ± 15.0%.

[4] = Metabolites detection in vivo in plasma, feces and urine (UHPLC-Q-TOF-MS); design: species or system rat; conditions: single oral losartan potassium 20 mg/kg
Experimental: For urine and feces, cumulative samples were collected over the following time intervals: 0–4, 4–8, 8–12, and 12–24 h after administration. The processing of the biological samples can be found in the Supplementary material.
The biological samples were processed as follows: For plasma, a total of 400 μL of pooled plasma was mixed by combining 50 μL aliquots from each time point. A 100 μL aliquot was mixed with 300 μL of methanol, vortexed for one minute, and centrifuged at 5,000 rpm for 10 minutes at 4°C [1]. In the case of urine, 1 mL was centrifuged at 4,000 rpm for 20 minutes at 4°C, and the supernatant was mixed with 2 mL of methanol, vortexed for one minute, and centrifuged at 12,000 rpm for 10 minutes at 4°C [2]. For fecal samples, 1.0 g of homogenized feces was extracted with 4 mL of methanol, sonicated in an ice-water bath for 20 minutes, and then centrifuged at 12,000 rpm for 10 minutes at 4°C [3]. Supernatants from the plasma, urine, and fecal extracts were evaporated under nitrogen gas, redissolved in methanol, and transferred to liquid chromatography vials. Samples were analyzed using UHPLC-Q-TOF-MS/MS for metabolite profiling.

[5] = tested on: gut microbiota from WKYs; assay: Anaerobic incubation of drug with fecal gut microbiota from WKYs; assay type: in vitro ADME, rat; conditions: for Qualitative analysis: metabolism to other compounds: WKY gut microbiota in vitro, UHPLC-Q-TOF-MS; for Remaining content: WKY gut microbiota, 40 μM drug, anaerobic 37 °C, mGAM
Experimental: as §1, §2

[6] = autosampler for 24 h (8 ℃), high nominal conc. (losartan 8000, E-3174 4000, E-3179 1600 ng/mL)
[7] = autosampler for 24 h (8 ℃), low nominal conc. (losartan 0.2, E-3174 10, E-3179 0.4 ng/mL)
[8] = autosampler for 24 h (8 ℃), middle nominal conc. (losartan 2000, E-3174 1000, E-3179 400 ng/mL)
[9] = room temperature for 6 h, high nominal conc. (losartan 8000, E-3174 4000, E-3179 1600 ng/mL)
[10] = room temperature for 6 h, low nominal conc. (losartan 0.2, E-3174 10, E-3179 0.4 ng/mL)
[11] = room temperature for 6 h, middle nominal conc. (losartan 2000, E-3174 1000, E-3179 400 ng/mL)
[12] = three freeze-thaw cycles, high nominal conc. (losartan 8000, E-3174 4000, E-3179 1600 ng/mL)
[13] = three freeze-thaw cycles, low nominal conc. (losartan 0.2, E-3174 10, E-3179 0.4 ng/mL)
[14] = three freeze-thaw cycles, middle nominal conc. (losartan 2000, E-3174 1000, E-3179 400 ng/mL)
[15] = −80°C for 30 days, high nominal conc. (losartan 8000, E-3174 4000, E-3179 1600 ng/mL)
[16] = −80°C for 30 days, low nominal conc. (losartan 0.2, E-3174 10, E-3179 0.4 ng/mL)
[17] = −80°C for 30 days, middle nominal conc. (losartan 2000, E-3174 1000, E-3179 400 ng/mL)

Row | Structure (SMILES) | Qualitative analysis: metabolism to other compounds [1] | Remaining content ([1]; 0 h) [µM] | Remaining content ([1]; 12 h) [µM] | Remaining content ([1]; 24 h) [µM] | Remaining content ([1]; 48 h) [µM] | Inhibition of growth of E. faecalis [2] | Stability RE [3, 6] [%] | Stability RE [3, 7] [%] | Stability RE [3, 8] [%] | Stability RE [3, 9] [%] | Stability RE [3, 10] [%] | Stability RE [3, 11] [%] | Stability RE [3, 12] [%] | Stability RE [3, 13] [%] | Stability RE [3, 14] [%] | Stability RE [3, 15] [%] | Stability RE [3, 16] [%] | Stability RE [3, 17] [%] | Abundance in feces and plasma, SHRs vs WKYs [4] | Qualitative analysis: metabolism to other compounds [5] | also measured
1 | CCCCc1nc(Cl)c(C(=O)O)n1Cc1ccc(-c2ccccc2-c2nnn[nH]2)cc1 [E-3174] | neither losartan nor E-3174 was metabolized to other compounds | 38.21 ± 0.11 | 39.55 ± 2.13 | 35.95 ± 1.41 | 27.07 ± 6.32 | did not inhibit the growth | 2.69 | -4.63 | -1.40 | 0.27 | 3.95 | 11.23 | 5.22 | 0.33 | 8.12 | 5.50 | 1.75 | 5.09 | lower in SHRs than in WKYs | neither losartan nor E-3174 was metabolized to other compounds | Remaining content ([5]; 0 h): 37.45 ± 1.33 µM; Remaining content ([5]; 12 h): 41.40 ± 1.42 µM; Remaining content ([5]; 24 h): 39.27 ± 1.11 µM; Remaining content ([5]; 48 h): 31.95 ± 1.41 µM
2 | CCCCc1nc(Cl)c(CO)n1Cc1ccc(-c2ccccc2-c2nn[nH]n2)cc1 [Losartan, Losartan potassium] | neither losartan nor E-3174 was metabolized to other compounds | 37.62 ± 1.03 | 38.41 ± 2.14 | 33.51 ± 2.35 | 32.98 ± 2.19 | did not inhibit the growth | 8.67 | -4.05 | 12.50 | 5.37 | 12.66 | 10.42 | 6.18 | -2.68 | 9.49 | 4.25 | -7.51 | 12.98 | lower in SHRs than in WKYs | neither losartan nor E-3174 was metabolized to other compounds | Abundance in urine, SHRs vs WKYs [4]: more abundant in urine; Remaining content ([5]; 0 h): 37.78 ± 2.05 µM; Remaining content ([5]; 12 h): 36.96 ± 2.06 µM; Remaining content ([5]; 24 h): 36.03 ± 0.78 µM; Remaining content ([5]; 48 h): 33.85 ± 0.96 µM
